We go through 33 compounds from patent US7662832B2, “Pyrrolo[2,3-c]pyridine derivatives and processes for the preparation thereof” (priority 2004, dated 2010).

pIC50: −log10 of the molar value. Structures can show the parent of a compound that is named as a salt.

For orientation: pIC50 means the IC50 on a negative log10 scale, so that one unit is a factor of ten.

For this assay, the target named is Proton Pump (H^+/K^+-ATPase) (Sus scrofa, UniProt P19156). Kind of assay: Inhibitory effects on proton pump (H^+/K^+-ATPase) activity. The format is biochemical. The settings on record: hog gastric vesicles; K^+ stimulated H^+/K^+-ATPase activity; 30 minutes at 37° C.
Proton Pump (H^+/K^+-ATPase), sequence (P19156 2-1034 limits assumed): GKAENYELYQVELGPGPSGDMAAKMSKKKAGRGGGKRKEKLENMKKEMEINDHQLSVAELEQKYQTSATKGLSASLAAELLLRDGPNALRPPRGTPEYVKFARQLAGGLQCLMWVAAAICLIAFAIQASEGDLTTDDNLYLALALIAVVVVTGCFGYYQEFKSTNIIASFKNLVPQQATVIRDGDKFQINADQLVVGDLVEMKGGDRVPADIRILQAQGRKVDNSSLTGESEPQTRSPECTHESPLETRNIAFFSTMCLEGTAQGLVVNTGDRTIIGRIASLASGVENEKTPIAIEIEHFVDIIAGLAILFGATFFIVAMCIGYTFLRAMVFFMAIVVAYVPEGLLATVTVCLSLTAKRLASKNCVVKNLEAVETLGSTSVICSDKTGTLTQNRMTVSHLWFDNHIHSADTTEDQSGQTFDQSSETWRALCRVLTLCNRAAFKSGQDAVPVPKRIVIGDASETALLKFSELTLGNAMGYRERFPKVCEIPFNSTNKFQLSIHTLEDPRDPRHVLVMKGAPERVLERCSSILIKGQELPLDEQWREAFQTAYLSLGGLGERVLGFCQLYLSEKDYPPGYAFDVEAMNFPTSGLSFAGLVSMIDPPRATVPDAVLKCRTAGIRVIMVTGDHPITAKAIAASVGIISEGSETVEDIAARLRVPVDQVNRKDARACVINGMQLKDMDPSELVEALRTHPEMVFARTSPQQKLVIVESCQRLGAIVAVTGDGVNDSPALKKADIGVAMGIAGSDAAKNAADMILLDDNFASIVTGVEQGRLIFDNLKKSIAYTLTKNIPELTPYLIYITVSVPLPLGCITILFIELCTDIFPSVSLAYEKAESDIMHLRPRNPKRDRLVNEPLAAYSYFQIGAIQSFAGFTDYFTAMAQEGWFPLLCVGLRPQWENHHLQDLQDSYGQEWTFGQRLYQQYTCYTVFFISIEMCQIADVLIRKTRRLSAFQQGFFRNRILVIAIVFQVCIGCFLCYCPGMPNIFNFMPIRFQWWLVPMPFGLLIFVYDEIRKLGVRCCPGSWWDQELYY
Proton Pump (H^+/K^+-ATPase), sequence (P18434 whole entry partner): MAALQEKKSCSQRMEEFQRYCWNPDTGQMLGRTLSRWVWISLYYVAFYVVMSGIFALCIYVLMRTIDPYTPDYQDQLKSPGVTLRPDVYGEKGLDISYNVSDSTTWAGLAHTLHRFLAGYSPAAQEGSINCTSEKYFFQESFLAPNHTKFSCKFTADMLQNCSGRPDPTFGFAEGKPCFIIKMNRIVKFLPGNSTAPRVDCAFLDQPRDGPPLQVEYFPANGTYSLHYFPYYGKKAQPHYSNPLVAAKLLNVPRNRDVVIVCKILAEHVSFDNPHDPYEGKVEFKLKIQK
In turn, `C=CCn1c(C)c(C)c2ccnc(-c3ccc(F)cc3)c21` [Example 326, 1-allyl-7-(4-fluorophenyl)-2,3-dimethyl-1H-pyrrolo[2,3-c]pyridine hydrochloride] had a negative-log IC50 (pIC50) of 6.51.

Compound `CCn1c(C)c(C)c2ccnc(N3CCc4ccccc4C3C)c21` (stereo not drawn) [Example 554, 2-(1-ethyl-2,3-dimethyl-1H-pyrrolo[2,3-c]pyridin-7-yl)-1-methyl-1,2,3,4-tetrahydroisoquinoline hydrochloride] gave a pIC50 of 7.23.

In turn, `Cc1c(C)n(Cc2cccc(F)c2)c2c(N3CCc4ccccc4C3)nc(CN3CCN(C)CC3)cc12` [Example 873, 2-[1-(3-fluorobenzyl)-2,3-dimethyl-5-(4-methylpiperazin-1-ylmethyl)-1H-pyrrolo[2,3-c]pyridin-7-yl]-1,2,3,4-tetrahydroisoquinoline hydrochloride] showed a negative-log IC50 (pIC50) of 7.59.

As to `Cc1cc2ccnc(N3CCc4ccccc4C3)c2n1Cc1cccc(F)c1` [Example 613, 2-[1-(3-fluorobenzyl)-2-methyl-1H-pyrrolo[2,3-c]pyridin-7-yl]-1,2,3,4-tetrahydroisoquinoline hydrochloride], the pIC50 is 6.43.

Consider `Cc1c(CO)c2ccnc(N3CCc4ccccc4C3)c2n1Cc1cccc(F)c1` [Example 617, [7-(3,4-dihydro-1H-isoquinolin-2-yl)-1-(3-fluorobenzyl)-2-methyl-1H-pyrrolo[2,3-c]pyridin-3-yl]-methanol hydrochloride], for which the negative logarithm of the IC50 (pIC50) was 7.19.

As for `Cc1c(C)n(Cc2cccc(F)c2)c2c(N3CCc4ccccc4C3)nc(CC#N)cc12` [Example 884, [7-(3,4-dihydro-1H-isoquinolin-2-yl)-1-(3-fluorobenzyl)-2,3-dimethyl-1H-pyrrolo[2,3-c]pyridin-5-yl]-acetonitrile hydrochloride], the pIC50 was 6.67.

On to `Cc1c(C)n(Cc2ccccc2)c2c(N3CCc4ccccc4C3)nc(C(N)=O)cc12` [Example 745, 1-benzyl-7-(3,4-dihydro-1H-isoquinolin-2-yl)-2,3-dimethyl-1H-pyrrolo[2,3-c]pyridin-5-carboxamide], for which the pIC50 was 6.95.

`CCN1CCN(C(=O)c2cc3c(C)c(C)n(Cc4ccccc4)c3c(NCc3ccc(F)cc3)n2)CC1` [Example 907, [1-benzyl-7-(4-fluorobenzylamino)-2,3-dimethyl-1H-pyrrolo[2,3-c]pyridin-5-yl]-(4-ethylpiperazin-1-yl)-methanone hydrochloride]: the negative-log IC50 (pIC50) was 7.49. This pIC50 is 0.54 log units higher than that of the compound before.

In the case of `Cc1c(C)n(Cc2ccccc2)c2c(NCc3ccc(Cl)cc3)nccc12` [Example 215, 1-benzyl-7-(4-chlorobenzylamino)-2,3-dimethyl-1H-pyrrolo[2,3-c]pyridine hydrochloride], the pIC50 was 6.38.

In turn, `C=CCn1c(C)c(C)c2ccnc(-c3ccc(C=C)cc3)c21` [Example 245, 1-allyl-2,3-dimethyl-7-(4-vinylphenyl)-1H-pyrrolo[2,3-c]pyridine hydrochloride] showed a negative logarithm of the IC50 (pIC50) of 7.00.

`CCN1CCN(C(=O)c2cc3c(C)c(C)n(Cc4cccc(OC)c4)c3c(N3CCc4ccccc4C3)n2)CC1` [Example 824, [7-(3,4-dihydro-1H-isoquinolin-2-yl)-1-(3-methoxybenzyl)-2,3-dimethyl-1H-pyrrolo[2,3-c]pyridin-5-yl]-(4-ethylpiperazin-1-yl)-methanone hydrochloride] gave a pIC50 of 7.48.

On to `CCC1c2ccccc2CCN1c1nccc2c(C)c(C)n(CC=C(C)C)c12` (stereo not drawn) [Example 578, 2-[2,3-dimethyl-1-(3-methylbut-2-enyl)-1H-pyrrolo[2,3-c]pyridin-7-yl]-1-ethyl-1,2,3,4-tetrahydroisoquinoline hydrochloride], for which the pIC50 was 6.54.

Compound `Cc1c(C)n(Cc2ccccc2)c2c(N3CCc4ccccc4C3)nc(C(=O)O)cc12` [Example 744, 1-benzyl-7-(3,4-dihydro-1H-isoquinolin-2-yl)-2,3-dimethyl-1H-pyrrolo[2,3-c]pyridin-5-carboxylate sodium] had a pIC50 of 6.89.

Consider `Cc1c(C)n(Cc2cccc(F)c2)c2c(N3CCc4ccccc4C3)nc(CN3CCOCC3)cc12` [Example 872, 2-[1-(3-fluorobenzyl)-2,3-dimethyl-5-(morpholin-4-ylmethyl)-1H-pyrrolo[2,3-c]pyridin-7-yl]-1,2,3,4-tetrahydroisoquinoline hydrochloride], for which the negative logarithm of the IC50 (pIC50) is 7.37.

The compound “[7-(3,4-dihydro-1H-isoquinolin-2-yl)-1-(3-fluorobenzyl)-2,3-dimethyl-1H-pyrrolo[2,3-c]pyridin-5-yl]-methylamine hydrochloride [Example 888]” showed a pIC50 of 7.70.

Consider `CNC(=O)c1cc2c(C)c(C)n(Cc3ccccc3)c2c(N2CCc3ccccc3C2)n1` [Example 772, 1-benzyl-7-(3,4-dihydro-1H-isoquinolin-2-yl)-2,3-dimethyl-N-methyl-1H-pyrrolo[2,3-c]pyridin-5-carboxamide hydrochloride], for which the pIC50 was 6.26.

The compound `C=Cc1ccc(-c2nccc3c(C)c(C)n(Cc4ccccc4)c23)cc1` [Example 246, 1-benzyl-2,3-dimethyl-7-(4-vinylphenyl)-1H-pyrrolo[2,3-c]pyridine hydrochloride] showed a pIC50 of 6.96.

For `C=Cc1ccc(-c2nccc3c(C)c(C)n(Cc4ccc(C)cc4)c23)cc1` [Example 244, 2,3-dimethyl-1-(4-methylbenzyl)-7-(4-vinylphenyl)-1H-pyrrolo[2,3-c]pyridine hydrochloride], the pIC50 was 7.05.

`Cc1c(C)n(Cc2ccc(C(F)(F)F)cc2)c2c(N3CCc4ccccc4C3)nccc12` [Example 500, 7-(1,2,3,4-tetrahydroisoquinolin-2-yl)-1-(4-trifluoromethylbenzyl)-2,3-dimethyl-1H-pyrrolo[2,3-c]pyridine hydrochloride] showed a negative-log IC50 (pIC50) of 6.57.

`CCN1CCN(C(=O)c2cc3c(C)c(C)n(CC)c3c(N3CCc4ccccc4C3)n2)CC1` [Example 826, [7-(3,4-dihydro-1H-isoquinolin-2-yl)-1-ethyl-2,3-dimethyl-1H-pyrrolo[2,3-c]pyridin-5-yl]-(4-ethylpiperazin-1-yl)-methanone hydrochloride] had a pIC50 of 7.80. Against the preceding compound, the pIC50 is 1.23 log units higher.

Turning to `CCCn1c(C)c(C)c2cc(C(=O)N3CCOCC3)nc(N3CCc4ccccc4C3)c21` [Example 781, [7-(3,4-dihydro-1H-isoquinolin-2-yl)-2,3-dimethyl-1-propyl-1H-pyrrolo[2,3-c]pyridin-5-yl]-(morpholin-4-yl)-methanone hydrochloride], the pIC50 is 7.41. Compared with the last compound, the pIC50 is 0.39 log units lower.

`Cc1c(C)n(CC2CC2)c2c(N3CCc4ccccc4C3)nc(C(=O)N3CCCCC3)cc12` [Example 793, [1-cyclopropylmethyl-7-(3,4-dihydro-1H-isoquinolin-2-yl)-2,3-dimethyl-1H-pyrrolo[2,3-c]pyridin-5-yl]-(piperidin-1-yl)-methanone hydrochloride] had a negative-log IC50 (pIC50) of 6.93. Against the preceding compound, the pIC50 is 0.48 log units lower.

As for `C=CCn1c(C)c(C)c2ccnc(N3CCc4ccccc4C3)c21` [Example 492, 1-allyl-7-(1,2,3,4-tetrahydroisoquinolin-2-yl)-2,3-dimethyl-1H-pyrrolo[2,3-c]pyridine phosphate], the negative logarithm of the IC50 (pIC50) is 8.15.

`CCn1c(C)c(C)c2cc(C(=O)N3CCCCC3)nc(N3CCc4ccccc4C3)c21` [Example 787, [7-(3,4-dihydro-1H-isoquinolin-2-yl)-1-ethyl-2,3-dimethyl-1H-pyrrolo[2,3-c]pyridin-5-yl]-(piperidin-1-yl)-methanone hydrochloride]: the negative-log IC50 (pIC50) is 8.96.

Consider `C=CCn1c(C)c(C)c2cc(C(=O)N3CCCCC3)nc(N3CCc4ccccc4C3)c21` [Example 786, [1-allyl-7-(3,4-dihydro-1H-isoquinolin-2-yl)-2,3-dimethyl-1H-pyrrolo[2,3-c]pyridin-5-yl]-(piperidin-1-yl)-methanone hydrochloride], for which the pIC50 was 7.82.

In turn, `Cc1c(C)n(Cc2ccccc2)c2c(N3CCc4ccccc4C3)nc(C(=O)N3CCCCC3)cc12` [Example 788, [1-benzyl-7-(3,4-dihydro-1H-isoquinolin-2-yl)-2,3-dimethyl-1H-pyrrolo[2,3-c]pyridin-5-yl]-(piperidin-1-yl)-methanone hydrochloride] had a negative-log IC50 (pIC50) of 7.28.

Consider `CCn1c(C)c(C)c2ccnc(N3CCc4ccccc4C3)c21` [Example 481, 1-ethyl-7-(1,2,3,4-tetrahydroisoquinolin-2-yl)-2,3-dimethyl-1H-pyrrolo[2,3-c]pyridine hydrochloride], for which the negative-log IC50 (pIC50) is 7.23.

Regarding `Cc1ccc(-c2nccc3c(C)c(C)n(Cc4ccc(Cl)c(Cl)c4)c23)cc1` [Example 296, 1-(3,4-dichlorobenzyl)-2,3-dimethyl-7-(p-tolyl)-1H-pyrrolo[2,3-c]pyridine hydrochloride], the negative logarithm of the IC50 (pIC50) is 5.29.

The compound `CCCn1c(C)c(C)c2ccnc(NCc3ccccc3Cl)c21` [Example 231, 7-(2-chlorobenzylamino)-2,3-dimethyl-1-propyl-1H-pyrrolo[2,3-c]pyridine hydrochloride] showed a pIC50 of 6.86.

Regarding `Cc1c(C)n(Cc2ccccc2)c2c(C=Cc3ccccc3)nccc12` [Example 418, 1-benzyl-2,3-dimethyl-7-styryl-1H-pyrrolo[2,3-c]pyridine hydrochloride], the pIC50 is 6.54.

On to `CC(C)=CCn1c(C)c(C)c2ccnc(N3CCc4ccc(Cl)cc4C3C)c21` (stereo not drawn) [Example 534, 7-chloro-2-[2,3-dimethyl-1-(3-methylbut-2-enyl)-1H-pyrrolo[2,3-c]pyridin-7-yl]-1-methyl-1,2,3,4-tetrahydroisoquinoline hydrochloride], for which the negative logarithm of the IC50 (pIC50) is 6.40.

For the compound `Cc1c(C)n(CC2CC2)c2c(N3CCc4ccccc4C3)nc(C(=O)N3CCN(C)CC3)cc12` [Example 817, [1-cyclopropylmethyl-7-(3,4-dihydro-1H-isoquinolin-2-yl)-2,3-dimethyl-1H-pyrrolo[2,3-c]pyridin-5-yl]-(4-methylpiperazin-1-yl)-methanone hydrochloride], the pIC50 is 7.62.

With `Cc1ccc(-c2nccc3c(C)c(C)n(Cc4ccc(Cl)cc4)c23)cc1` [Example 283, 1-(4-chlorobenzyl)-2,3-dimethyl-7-(p-tolyl)-1H-pyrrolo[2,3-c]pyridine hydrochloride], the negative logarithm of the IC50 (pIC50) is 5.76.
